Assay in all cases: General post-emergent herbicidal activity, foliar application
Type in all cases: in vivo

Assay [1] has as its system Amaranthus retroflexus L. (pigweed, redroot). The following applies: for pest or weed control at 70 g/ha / pest or weed control at 140 g/ha / pest or weed control at 280 g/ha: Amaranthus retroflexus, 336 h, foliar post-emergent, scored after 14 days, read-out: % Visual Growth Reduction AMARE; for pest or weed control at 70 g/ha: 70 g ai/ha; for pest or weed control at 140 g/ha: 140 g ai/ha; for pest or weed control at 280 g/ha: 280 g ai/ha; for GR80 Value AMARE: calculated by probit analysis, dose for 80% visual injury, may be extrapolated. On the procedure: (§1) A weighed amount, determined by the highest rate to be tested, of each test compound was placed in a 25 mL glass vial and was dissolved in 4 mL of a 97:3 v/v (volume/volume) mixture of acetone and dimethyl sulfoxide to obtain concentrated stock solutions which will be referred to as General Purpose Solvent. […] The concentrated stock solutions obtained were diluted with 20 mL of an aqueous mixture containing water, General Purpose Solvent, isopropyl alcohol, Atplus 411F crop oil concentrate, and Triton X-155 surfactant in a 46:42:12:1.0:0.02 v/v ratio to obtain spray solutions containing the highest application rates. Additional application rates were obtained by serial dilution of 12 mL of the high rate solution into a solution containing 2 mL of 97:3 v/v (volume/volume) mixture of acetone and dimethyl sulfoxide and 10 mL of an aqueous mixture containing water, General Purpose Solvent, isopropyl alcohol, Atplus 411F crop oil concentrate, and Triton X-155 surfactant in a 46:42:12:1.0:0.02 v/v ratio to obtain 1/2×, 1/4×, 1/8× and 1/16× rates of the high rate. […] Control plants were sprayed in the same manner with the solvent blank.
(§2) The treated plants and control plants were placed in a greenhouse as described above and watered by sub-irrigation to prevent wash-off of the test compounds. After 14 days, the condition of the test plants as compared with that of the untreated plants was determined visually and scored on a scale of 0 to 100 percent where 0 corresponds to no injury and 100 corresponds to complete kill.
(§3) By applying the well-accepted probit analysis as described by J. Berkson in […], 48, 565 (1953) and by D. Finney in “Probit Analysis” Cambridge University Press (1952), the dose response data gathered as expressed above can be used to calculate GR20, GR50 and GR80 values, which are defined as growth reduction factors that correspond to the effective dose of herbicide required to kill or control 20 percent, 50 percent or 80 percent, respectively, of a target plant. Data not expressed in Table A may have been used to calculate some of the GR80 values in Table B. In some cases, the GR80 values may be extrapolations calculated based on the slope of the dose response curve for individual compounds listed in Table B.

Assay [2] concerns Chenopodium album L. (lambsquarters, common). To be noted: for pest or weed control at 70 g/ha / pest or weed control at 140 g/ha / pest or weed control at 280 g/ha: Chenopodium album, 336 h, foliar post-emergent, scored after 14 days, read-out: % Visual Growth Reduction CHEAL; for pest or weed control at 70 g/ha: 70 g ai/ha; for pest or weed control at 140 g/ha: 140 g ai/ha; for pest or weed control at 280 g/ha: 280 g ai/ha; for GR80 Value CHEAL: calculated by probit analysis, dose for 80% visual injury, may be extrapolated. As for the experimental part: as §1, §2, §3

Assay [3] has as its system Echinochloa crus-galli (L.) Beauv. (barnyardgrass). The following applies: for pest or weed control at 70 g/ha / pest or weed control at 140 g/ha / pest or weed control at 280 g/ha: Echinochloa crus-galli, 336 h, foliar post-emergent, scored after 14 days, read-out: % Visual Growth Reduction ECHCG; for pest or weed control at 70 g/ha: 70 g ai/ha; for pest or weed control at 140 g/ha: 140 g ai/ha; for pest or weed control at 280 g/ha: 280 g ai/ha; for GR80 Value ECHCG: calculated by probit analysis, dose for 80% visual injury, may be extrapolated. On the procedure:
as §1, §2, §3

Assay [4] relates to Euphorbia heterophylla L. (poinsettia, wild). The following applies: for pest or weed control at 70 g/ha / pest or weed control at 140 g/ha / pest or weed control at 280 g/ha: Euphorbia heterophylla, 336 h, foliar post-emergent, scored after 14 days, read-out: % Visual Growth Reduction EPHHL; for pest or weed control at 70 g/ha: 70 g ai/ha; for pest or weed control at 140 g/ha: 140 g ai/ha; for pest or weed control at 280 g/ha: 280 g ai/ha; for GR80 Value EPHHL: calculated by probit analysis, dose for 80% visual injury, may be extrapolated. As for the experimental part: as §1, §2, §3

The subject of assay [5] is Helianthus annuus L. (sunflower, common). The following applies: for pest or weed control at 70 g/ha / pest or weed control at 140 g/ha / pest or weed control at 280 g/ha: Helianthus annuus, 336 h, foliar post-emergent, scored after 14 days, read-out: % Visual Growth Reduction HELAN; for pest or weed control at 70 g/ha: 70 g ai/ha; for pest or weed control at 140 g/ha: 140 g ai/ha; for pest or weed control at 280 g/ha: 280 g ai/ha; for GR80 Value HELAN: calculated by probit analysis, dose for 80% visual injury, may be extrapolated. As for the experimental part:
as §1, §2, §3

In assay [6] the test system is Viola tricolor L. (pansy). To be noted: for pest or weed control at 70 g/ha / pest or weed control at 140 g/ha / pest or weed control at 280 g/ha: Viola tricolor, 336 h, foliar post-emergent, scored after 14 days, read-out: % Visual Growth Reduction VIOTR; for pest or weed control at 70 g/ha: 70 g ai/ha; for pest or weed control at 140 g/ha: 140 g ai/ha; for pest or weed control at 280 g/ha: 280 g ai/ha; for GR80 Value VIOTR: calculated by probit analysis, dose for 80% visual injury, may be extrapolated. As for the experimental part: as §1, §2, §3

In the next assay the test system is Oryza sativa L. (rice). To be noted: Oryza sativa, 336 h, scored after 14 days, read-out: % Visual Growth Reduction ORYSA; for plant injury at 70 g/ha: 70 g ai/ha; for plant injury at 140 g/ha: 140 g ai/ha; for plant injury at 280 g/ha: 280 g ai/ha. As for the experimental part:
as §1, §2

For the next assay, the system named is Zea mays L. (corn). To be noted: 336 h, scored after 14 days, read-out: % Visual Growth Reduction ZEAMX; for plant injury at 70 g/ha: 70 g ai/ha; for plant injury at 140 g/ha: 140 g ai/ha; for plant injury at 280 g/ha: 280 g ai/ha. As for the experimental part: as §1, §2

SMILES strings stand for the structures.

Consider `COC(=O)c1nc(C(F)CF)cc(N)c1Cl` (stereo not shown) [Compound F28, methyl 4-amino-3-chloro-6-(1,2-difluoroethyl)picolinate], for which, in assay [1], the pest or weed control at 70 g/ha is 80%, the pest or weed control at 140 g/ha was 100%, the pest or weed control at 280 g/ha worked out at 100% and the “GR80 Value AMARE” value is on record as 66.4 g ai/ha. Besides, in assay [2], the pest or weed control at 70 g/ha amounted to 90%, the pest or weed control at 140 g/ha was found to be 80%, the pest or weed control at 280 g/ha worked out at 90% and the “GR80 Value CHEAL” value is on record as 17.5 g ai/ha. Moreover, in assay [3], the pest or weed control at 70 g/ha was 0%, the pest or weed control at 140 g/ha was 0%, the pest or weed control at 280 g/ha was found to be 0% and the “GR80 Value ECHCG” value is over 280 g ai/ha. Further, in assay [4], the pest or weed control at 70 g/ha came to 80%, the pest or weed control at 140 g/ha is 100%, the pest or weed control at 280 g/ha came out at 100% and the “GR80 Value EPHHL” value is 73 g ai/ha. Besides, in assay [5], the pest or weed control at 70 g/ha was found to be 80%, the pest or weed control at 140 g/ha is 90%, the pest or weed control at 280 g/ha amounted to 95% and the “GR80 Value HELAN” value was 52.9 g ai/ha. In assay [6], the pest or weed control at 70 g/ha came out at 15%, the pest or weed control at 140 g/ha is 75%, the pest or weed control at 280 g/ha was 90% and the “GR80 Value VIOTR” value is recorded as 197 g ai/ha. Besides, in the assay on Oryza sativa L. (rice), the plant injury at 70 g/ha was found to be 0%, the plant injury at 140 g/ha is 0% and the plant injury at 280 g/ha turned out to be 0%. For the same molecule, in the assay with Zea mays L. (corn), the plant injury at 70 g/ha amounted to 10%, the plant injury at 140 g/ha came out at 10% and the plant injury at 280 g/ha came to 10%.

For `COC(=O)c1nc(CCl)c(F)c(N)c1Cl` [Compound F21, Methyl 4-amino-3-chloro-6-(chloromethyl)-5-fluoropicolinate], the pest or weed control at 280 g/ha in assay [1], in assay [2], in assay [3], in assay [4], in assay [5] and in assay [6] was 0% throughout. Moreover, the plant injury at 280 g/ha with Oryza sativa L. (rice) and in the assay on Zea mays L. (corn) was 0% each time.

For the molecule `COC(=O)c1nc(C(F)F)c(F)c(N)c1Cl` [Compound F3, methyl 4-amino-3-chloro-6-(difluoromethyl)-5-fluoropicolinate], in assay [1], the pest or weed control at 70 g/ha came to 5%, the pest or weed control at 140 g/ha was 50%, the pest or weed control at 280 g/ha stood at 90% and the “GR80 Value AMARE” value is on record as 112 g ai/ha. In assay [2], the pest or weed control at 70 g/ha came out at 100%, the pest or weed control at 140 g/ha is 100%, the pest or weed control at 280 g/ha was determined as 100% and the “GR80 Value CHEAL” value was under 17.5 g ai/ha. In assay [3], the pest or weed control at 70 g/ha turned out to be 0%, the pest or weed control at 140 g/ha is 0%, the pest or weed control at 280 g/ha was found to be 10% and the “GR80 Value ECHCG” value is on record as over 280 g ai/ha. For the same molecule, in assay [4], the pest or weed control at 70 g/ha was found to be 50%, the pest or weed control at 140 g/ha is 75%, the pest or weed control at 280 g/ha stood at 85% and the “GR80 Value EPHHL” value is on record as 193 g ai/ha. Besides, in assay [5], the pest or weed control at 70 g/ha amounted to 90%, the pest or weed control at 140 g/ha was 90%, the pest or weed control at 280 g/ha is 90% and the “GR80 Value HELAN” value is 32.5 g ai/ha. Also, in assay [6], the pest or weed control at 70 g/ha amounted to 0%, the pest or weed control at 140 g/ha came to 5%, the pest or weed control at 280 g/ha came to 10% and the “GR80 Value VIOTR” value is reported as over 280 g ai/ha. Further, in the assay on Oryza sativa L. (rice), the plant injury at 70 g/ha came to 0%, the plant injury at 140 g/ha came to 0% and the plant injury at 280 g/ha was 0%. In addition, in the assay on Zea mays L. (corn), the plant injury at 70 g/ha is 0%, the plant injury at 140 g/ha was found to be 0% and the plant injury at 280 g/ha was 10%.

For the molecule `Nc1c(Cl)c(CF)nc(C(=O)O)c1Cl` [Compound F25, 4-Amino-3,5-dichloro-6-(fluoromethyl)picolinic acid], in assay [1], the pest or weed control at 140 g/ha was 80%, the pest or weed control at 280 g/ha came out at 85% and the “GR80 Value AMARE” value is reported as 180 g ai/ha. Besides, in assay [2], the pest or weed control at 140 g/ha was 80%, the pest or weed control at 280 g/ha is 80% and the “GR80 Value CHEAL” value is reported as 176 g ai/ha. In addition, in assay [3], the pest or weed control at 140 g/ha was determined as 0%, the pest or weed control at 280 g/ha was found to be 50% and the “GR80 Value ECHCG” value is 373 g ai/ha. Besides, in assay [4], the pest or weed control at 140 g/ha came to 100%, the pest or weed control at 280 g/ha amounted to 100% and the “GR80 Value EPHHL” value is on record as under 17.5 g ai/ha. In assay [5], the pest or weed control at 140 g/ha came to 80%, the pest or weed control at 280 g/ha worked out at 90% and the “GR80 Value HELAN” value is listed as 146 g ai/ha. In assay [6], the pest or weed control at 140 g/ha was 0%, the pest or weed control at 280 g/ha came out at 0% and the “GR80 Value VIOTR” value was over 280 g ai/ha. In addition, in the assay on Oryza sativa L. (rice), the plant injury at 140 g/ha is 0% and the plant injury at 280 g/ha was determined as 0%. Besides, in the assay on Zea mays L. (corn), the plant injury at 140 g/ha was determined as 0% and the plant injury at 280 g/ha worked out at 0%.

Take `C=C(F)c1nc(C(=O)OC)c(Cl)c(N)c1F` [Compound F22, methyl 4-amino-3-chloro-5-fluoro-6-(1-fluorovinyl)picolinate]: the pest or weed control at 140 g/ha in assay [1] stood at 90%; in assay [2], 90%; in assay [3] it was 0%; in assay [4], 50%; in assay [5], 80%; in assay [6], 10%. In addition, the pest or weed control at 280 g/ha turned out to be 90% in assay [1]; 90% in assay [2]; 0% in assay [3]; 60% in assay [4]; 80% in assay [5]; 10% in assay [6]. The plant injury at 140 g/ha with Oryza sativa L. (rice) and in the assay with Zea mays L. (corn) was 0% throughout. Besides, the plant injury at 280 g/ha in the assay with Oryza sativa L. (rice) and with Zea mays L. (corn) was 0% throughout.

The values are drawn from patent US9603364B2 (Dow AgroSciences LLC, priority 2013, dated 2017).
